Experimental data: patent US20100099614A1, “Antimicrobial Peptides and Methods of Use” (priority 2008, published 2010)

Columns and labels:
[1] = Peptide hydrophobicity by RP-HPLC retention; assay type: physicochemical; settings: 80° C., polar face substitution
Experimental: Peptide Synthesis and Purification—Syntheses of the peptides were carried out by solid-phase peptide synthesis using t-butyloxycarbonyl chemistry and MBHA (4-methylbenzhydrylamine) resin (0.97 mmol/g), followed by cleavage of the peptide from the resin as described previously (117-119). However, it is understood in the art that there are other suitable instruments and methods for automated or manual peptide synthesis that could be employed to produce the peptides described herein. Peptide purification was performed by reversed-phase high-performance liquid chromatography (RP-HPLC) on a Zorbax 300 SB-C8 column (250×9.4 mm I.D.; 6.5 μm particle size, 300 Å pore size; Agilent Technologies, Little Falls, Del.) with a linear AB gradient (0.1% acetonitrile/min) at a flow rate of 2 mL/min, where eluent A was 0.2% aqueous trifluoroacetic acid (TFA), pH 2, and eluent B was 0.2% TFA in acetonitrile, where the shallow 0.1% acetonitrile/min gradient started 12% below the acetonitrile concentration required to elute the peptide on injection of analytical sample using a gradient of 1% acetonitrile/min (113). The purity of the peptides was verified by analytical RP-HPLC as described below and further characterized by mass spectrometry and amino acid analysis. Crude and purified peptides were analyzed on an Agilent 1100 series liquid chromatograph. Runs were performed on a Zorbax 300 SB-C8 column (150×2.1 mm I.D.; 5 μm particle size, 300 Å pore size) from Agilent Technologies using a linear AB gradient (1% acetonitrile/min) and a flow rate of 0.25 mL/min, where eluent A was 0.2% aqueous TFA, pH 2, and eluent B was 0.2% TFA in acetonitrile.
Analytical RP-HPLC of Peptides—Peptides were analyzed on an Agilent 1100 series liquid chromatograph (Little Falls, Del.). Runs were performed on a Zorbax 300 SB-C8 column (150×2.1 mm I.D.; 5 μm particle size, 300 Å pore size) from Agilent Technologies using linear AB gradient (1% acetonitrile/min) and a flow rate of 0.25 ml/min, where solvent A was 0.05% aqueous TFA, pH 2 and solvent B was 0.05% TFA in acetonitrile. Temperature profiling analyses were performed in 3° C. increments, from 5° C. to 80° C.

[2] = Helical structure by circular dichroism spectroscopy; assay type: physicochemical
Experimental: The mean residue molar ellipticities of peptides were determined by circular dichroism (CD) spectroscopy, using a Jasco J-810 spectropolarimeter (Easton, Md.) at 5° C. under benign (non-denaturing) conditions (50 mM NaH2PO4/Na2HPO4/100 mM KCl, pH 7.0), hereafter referred to as benign buffer, as well as in the presence of an α-helix inducing solvent, 2,2,2-trifluoroethanol, TFE, (50 mM NaH2PO4/Na2HPO4/[…], pH 7.0 buffer/50% TFE). A 10-fold dilution of an approximately […] stock solution of the peptide analogs was loaded into a 0.1 cm quartz cell and its ellipticity scanned from 195 to 250 nm. The values of molar ellipticities of the peptide analogs at a wavelength of 222 nm were used to estimate the relative α-helicity of the peptides.

[3] = CD temperature denaturation study; assay type: physicochemical; settings: 50% TFE
Experimental: CD Temperature Denaturation Study of Peptide V681—The native peptide V681 was dissolved in 0.05% aqueous TFA containing 50% TFE, pH 2, loaded into a 0.02 cm fused silica cell and peptide ellipticity scanned from 190 to 250 nm at temperatures of 5, 15, 25, 35, 45, 55, 65 and 80° C. The spectra at different temperatures were used to mimic the alteration of peptide conformation during temperature profiling analysis in RP-HPLC. The ratio of the molar ellipticity at a particular temperature (t) relative to that at 5° C. ([θ]t−[θ]u)/([θ]5−[θ]u) was calculated and plotted against temperature in order to obtain the thermal melting profiles, where [θ]5 and [θ]u represent the molar ellipticity values for the fully folded and fully unfolded species, respectively. […] was determined in the presence of 8M urea with a value of 1500 deg·cm^2·dmol^−1 to represent a totally random coil state (31). The melting temperature (Tm) was calculated as the temperature at which the α-helix was 50% denatured (([θ]t−[θ]u)/([θ]5−θ[θ]u)=0.5) and the values were taken as a measure of α-helix stability.

Gram-positive bacteria = settings: gram-positive bacteria

Ac-KWKSFLKTFKSAVKTVLHTALKAISS-NH2 [V681, reference compound]
change in hydrophobicity (RP-HPLC retention) relative to PVL [1]: -0.35 min
[θ]222 in benign conditions ([2]; 100 mM KCl, 50 mM aq. PO4, pH 7): −12,900
[θ]222 in 50% TFE ([2]; 50% TFE): −27,300
α-helical content ([2]; 50% TFE): 94%
α-helical content ([2]; benign conditions): 45%
transition temperature Tm (50% of α-helical structure denatured) [3]: 79.3 °C
geometric mean MIC (Gram-positive bacteria): 6.3 µg/mL
